# Molecular target: T1, MAGL (Homo sapiens, UniProt Q99685)
# T1 sequence (Q99685 1-303): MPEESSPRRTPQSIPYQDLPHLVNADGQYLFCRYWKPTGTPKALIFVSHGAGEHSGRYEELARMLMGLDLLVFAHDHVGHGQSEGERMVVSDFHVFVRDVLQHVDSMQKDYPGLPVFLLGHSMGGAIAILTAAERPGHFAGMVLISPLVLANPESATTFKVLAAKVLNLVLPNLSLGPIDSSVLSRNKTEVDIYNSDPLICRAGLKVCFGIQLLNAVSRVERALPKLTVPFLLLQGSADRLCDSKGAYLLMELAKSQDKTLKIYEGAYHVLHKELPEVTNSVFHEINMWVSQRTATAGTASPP
# Test: 2-AG assay (MAGL inhibitory activity, hydrolysis of 2-arachidonoylglycerol to arachidonic acid followed by mass spectrometry)
# Format: biochemical
# Conditions: 8 μM 2-arachidonoylglycerol, 15 min pre-incubation, 30 min incubation at RT, RapidFire MS readout
# Outline: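 Human MAGL ([…] final) pre-incubated 15 min at RT with compound in 50 mM TRIS, 1 mM EDTA, 0.01% Tween-20, 2.5% DMSO; 8 μM 2-AG then added for 30 min at RT. Acetonitrile quench with d8-arachidonic acid; arachidonic acid measured by RapidFire SPE–MS/MS, activity from arachidonic acid/d8 ratio.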
row,SMILES,IC50
1,"N#Cc1cc(C(F)(F)F)ccc1O[C@H]1C[C@@H]2CN(C(=O)N3CC4(CC(n5cnc(C6CC6)n5)C4)C3)C[C@@H]2C1 [Example 114, 2-[[rac-(3aS,6aR)-2-[6-(3-cyclopropyl-1,2,4-triazol-1-yl)-2-azaspiro[3.3]heptane-2-carbonyl]-3,3a,4,5,6,6a-hexahydro-1H-cyclopenta[c]pyrrol-5-yl]oxy]-5-(trifluoromethyl) benzonitrile]",10.4 nM
2,"O=C(N1C[C@H]2C[C@H](Oc3ccc(C(F)(F)F)c(Cl)c3)C[C@H]2C1)N1CC2(CC(n3cnc(C4CC4)n3)C2)C1 [Example 115, [6-(3-cyclopropyl-1,2,4-triazol-1-yl)-2-azaspiro[3.3]heptan-2-yl]-[rac-(3aS,6aR)-5-[3-chloro-4-(trifluoromethyl)phenoxy]-3,3a,4,5,6,6a-hexahydro-1H-cyclopenta[c]pyrrol-2-yl]methanone]",2.4 nM
3,"O=C(N1C[C@H]2C[C@H](Oc3ccc(F)cc3F)C[C@H]2C1)N1CC2(CC(n3cnc(C4CC4)n3)C2)C1 [Example 121, [6-(3-cyclopropyl-1,2,4-triazol-1-yl)-2-azaspiro[3.3]heptan-2-yl]-[rac-(3aS,6aR)-5-(2,4-difluorophenoxy)-3,3a,4,5,6,6a-hexahydro-1H-cyclopenta[c]pyrrol-2-yl]methanone]",5.4 nM
4,"CS(=O)(=O)c1cc(F)ccc1O[C@H]1C[C@@H]2CN(C(=O)N3CC4(CC(n5cnc(C6CC6)n5)C4)C3)C[C@@H]2C1 [Example 123, [6-(3-cyclopropyl-1,2,4-triazol-1-yl)-2-azaspiro[3.3]heptan-2-yl]-[rac-(3aS,6aR)-5-(4-fluoro-2-methylsulfonyl-phenoxy)-3,3a,4,5,6,6a-hexahydro-1H-cyclopenta[c]pyrrol-2-yl]methanone]",41.9 nM
5,"O=C(N1C[C@H]2C[C@H](Oc3c(F)cc(F)cc3F)C[C@H]2C1)N1CC2(CC(n3cnc(C4CC4)n3)C2)C1 [Example 124, [6-(3-cyclopropyl-1,2,4-triazol-1-yl)-2-azaspiro[3.3]heptan-2-yl]-[rac-(3aS,6aR)-5-(2,4,6-trifluorophenoxy)-3,3a,4,5,6,6a-hexahydro-1H-cyclopenta[c]pyrrol-2-yl]methanone]",4 nM
6,"Cc1cc(O[C@H]2C[C@@H]3CN(C(=O)N4CC5(CC(n6cnc(C7CC7)n6)C5)C4)C[C@@H]3C2)ccc1F [Example 125, [6-(3-cyclopropyl-1,2,4-triazol-1-yl)-2-azaspiro[3.3]heptan-2-yl]-[rac-(3aS,6aR)-5-(4-fluoro-3-methyl-phenoxy)-3,3a,4,5,6,6a-hexahydro-1H-cyclopenta[c]pyrrol-2-yl]methanone]",4.6 nM

# The remaining molecules from weak to strong by IC50, led by results:
row,IC50,SMILES
1,72.2 nM,"N#Cc1cc(F)ccc1O[C@H]1C[C@@H]2CN(C(=O)N3CC4(CC(n5cnc(C6CC6)n5)C4)C3)C[C@@H]2C1 [Example 129, 5-fluoro-2-[[rac-(3aS,6aR)-2-[6-(3-cyclopropyl-1,2,4-triazol-1-yl)-2-azaspiro[3.3]heptane-2-carbonyl]-3,3a,4,5,6,6a-hexahydro-1H-cyclopenta[c]pyrrol-5-yl]oxy]benzonitrile]"
2,47.6 nM,"CS(=O)(=O)c1cc(O[C@H]2C[C@@H]3CN(C(=O)N4CC5(CC(n6cnc(C7CC7)n6)C5)C4)C[C@@H]3C2)ccc1F [Example 130, [6-(3-cyclopropyl-1,2,4-triazol-1-yl)-2-azaspiro[3.3]heptan-2-yl]-[rac-(3aS,6aR)-5-(4-fluoro-3-methylsulfonyl-phenoxy)-3,3a,4,5,6,6a-hexahydro-1H-cyclopenta[c]pyrrol-2-yl]methanone]"
3,14.4 nM,"N#Cc1cc(O[C@H]2C[C@@H]3CN(C(=O)N4CC5(CC(n6cnc(C7CC7)n6)C5)C4)C[C@@H]3C2)ccc1F [Example 127, 2-fluoro-5-[[rac-(3aS,6aR)-2-[6-(3-cyclopropyl-1,2,4-triazol-1-yl)-2-azaspiro[3.3]heptane-2-carbonyl]-3,3a,4,5,6,6a-hexahydro-1H-cyclopenta[c]pyrrol-5-yl]oxy]benzonitrile]"
4,7.4 nM,"O=C(N1C[C@H]2C[C@H](Oc3ccc(F)c(F)c3)C[C@H]2C1)N1CC2(CC(n3cnc(C4CC4)n3)C2)C1 [Example 119, [6-(3-cyclopropyl-1,2,4-triazol-1-yl)-2-azaspiro[3.3]heptan-2-yl]-[rac-(3aS,6aR)-5-(3,4-difluorophenoxy)-3,3a,4,5,6,6a-hexahydro-1H-cyclopenta[c]pyrrol-2-yl]methanone]"
5,7.3 nM,"COc1cc(F)ccc1O[C@H]1C[C@@H]2CN(C(=O)N3CC4(CC(n5cnc(C6CC6)n5)C4)C3)C[C@@H]2C1 [Example 122, [6-(3-cyclopropyl-1,2,4-triazol-1-yl)-2-azaspiro[3.3]heptan-2-yl]-[rac-(3aS,6aR)-5-(4-fluoro-2-methoxy-phenoxy)-3,3a,4,5,6,6a-hexahydro-1H-cyclopenta[c]pyrrol-2-yl]methanone]"
6,4.7 nM,"N#Cc1cc(O[C@H]2C[C@@H]3CN(C(=O)N4CC5(CC(n6cnc(C7CC7)n6)C5)C4)C[C@@H]3C2)ccc1C(F)(F)F [Example 118, 5-[rac-(3aS,6aR)-2-[6-(3-cyclopropyl-1,2,4-triazol-1-yl)-2-azaspiro[3.3]heptane-2-carbonyl]-3,3a,4,5,6,6a-hexahydro-1H-cyclopenta[c]pyrrol-5-yl]oxy]-2-(trifluoromethyl) benzonitrile]"
7,3.5 nM,"O=C(N1C[C@H]2C[C@H](Oc3ccc(C(F)(F)F)c(F)c3)C[C@H]2C1)N1CC2(CC(n3cnc(C4CC4)n3)C2)C1 [Example 117, [6-(3-cyclopropyl-1,2,4-triazol-1-yl)-2-azaspiro[3.3]heptan-2-yl]-[rac-(3aS,6aR)-5-[3-fluoro-4-(trifluoromethyl)phenoxy]-3,3a,4,5,6,6a-hexahydro-1H-cyclopenta[c]pyrrol-2-yl]methanone]"
8,2.7 nM,"COc1cc(C(F)(F)F)ccc1O[C@H]1C[C@@H]2CN(C(=O)N3CC4(CC(n5cnc(C6CC6)n5)C4)C3)C[C@@H]2C1 [Example 116, [6-(3-cyclopropyl-1,2,4-triazol-1-yl)-2-azaspiro[3.3]heptan-2-yl]-[rac-(3aS,6aR)-5-[2-methoxy-4-(trifluoromethyl)phenoxy]-3,3a,4,5,6,6a-hexahydro-1H-cyclopenta[c]pyrrol-2-yl]methanone]"
9,1.8 nM,"Cc1cc(F)c(F)cc1O[C@H]1C[C@@H]2CN(C(=O)N3CC4(CC(n5cnc(C6CC6)n5)C4)C3)C[C@@H]2C1 [Example 128, [6-(3-cyclopropyl-1,2,4-triazol-1-yl)-2-azaspiro[3.3]heptan-2-yl]-[rac-(3aS,6aR)-5-(4,5-difluoro-2-methyl-phenoxy)-3,3a,4,5,6,6a-hexahydro-1H-cyclopenta[c]pyrrol-2-yl]methanone]"
10,1 nM,"O=C(N1C[C@H]2C[C@H](Oc3ccc(F)c(C(F)(F)F)c3)C[C@H]2C1)N1CC2(CC(n3cnc(C4CC4)n3)C2)C1 [Example 120, [6-(3-cyclopropyl-1,2,4-triazol-1-yl)-2-azaspiro[3.3]heptan-2-yl]-[rac-(3aS,6aR)-5-[4-fluoro-3-(trifluoromethyl)phenoxy]-3,3a,4,5,6,6a-hexahydro-1H-cyclopenta[c]pyrrol-2-yl]methanone]"
